This note sets out measurements from patent publication US8143414B2, “Hepatitis C virus inhibitors” (Bristol-Myers Squibb Company, priority 2009, dated 2012).

By EC50 is commonly meant the concentration that produces a half-maximal response.

The assay deals with HCV 1b genotype. In words: HCV replicon assay, 1b genotype. Format: cell-based. The note with it: Hepatitis C virus; HCV 1b genotype replicon; EC50 = effective 50% inhibitory concentration. Here is the method: An HCV Replion assay was utilized in the present disclosure, and was prepared, conducted and validated as described in commonly owned PCT/US2006/022197 and in O'Boyle et. al. Antimicrob Agents Chemother. 2005 April; 49(4):1346-53. Assay methods incorporating luciferase reporters have also been used as described (Apath.com).
HCV-neo replicon cells and replicon cells containing mutations in the NS5A region were used to test the currently described family of compounds. The compounds were determined to have more than 10-fold less inhibitory activity on cells containing mutations than wild-type cells. Thus, the compounds of the present disclosure can be effective in inhibiting the function of the HCV NS5A protein and are understood to be as effective in combinations as previously described in application PCT/US2006/022197 and commonly owned WO/04014852. Further, the compounds of the present disclosure can be effective against the HCV 1b genotype. It should also be understood that the compounds of the present disclosure can inhibit multiple genotypes of HCV. […] In one embodiment, compounds of the present disclosure are inhibitory versus 1a, 1b, 2a, 2b, 3a, 4a, and 5a genotypes.
A general note: In antiviral work, replicon cells carry a viral genome segment that copies itself.

Turning to `COC(=O)N[C@H](C(=O)N1CCC[C@H]1c1ncc(-c2nc3cc4sc(-c5cnc([C@@H]6CCCN6C(=O)[C@@H](NC(=O)OC)C(C)C)[nH]5)nc4cc3s2)[nH]1)C(C)C` [Example 1, Methyl ((1S)-1-(((2S)-2-(4-(6-(2-((28)-1-((2S)-2-((methoxycarbonyl)amino)-3-methylbutanoyl)-2-pyrrolidinyl)-1H-imidazol-4-yl)[1,3]thiazolo[5,4-f][1,3]benzothiazol-2-yl)-1H-imidazol-2-yl)-1-pyrrolidinyl)carbonyl)-2-methylpropyl)carbamate, bistrifluoracetate], the EC50 amounted to 0.034 nM. Turning to `COC(=O)N[C@@H](C(=O)N1CCC[C@H]1c1ncc(-c2nc3cc4sc(-c5cnc([C@@H]6CCCN6C(=O)[C@H](NC(=O)OC)c6ccccc6)[nH]5)nc4cc3s2)[nH]1)c1ccccc1` [Example 2, Dimethyl ([1,3]thiazolo[5,4-f][1,3]benzothiazole-2,6-diylbis(1H-imidazole-4,2-diyl(2S)-2,1-pyrrolidinediyl((1R)-2-oxo-1-phenyl-2,1-ethanediyl)))biscarbamate, bistrifluoracetate], the EC50 was determined as 0.025 nM.

For `COC(=O)N[C@@H](C(=O)N1CCC[C@H]1c1ncc(-c2nc3cc4sc(-c5cnc([C@@H]6CCCN6C(=O)[C@H](NC(=O)OC)C(C)C)[nH]5)nc4cc3s2)[nH]1)C(C)C` [Example 3, Methyl ((1R)-1-(((2S)-2-(4-(6-(2-((2S)-1-((2R)-2-((methoxycarbonyl)amino)-3-methylbutanoyl)-2-pyrrolidinyl)-1H-imidazol-4-yl)[1,3]thiazolo[5,4-f][1,3]benzothiazol-2-yl)-1H-imidazol-2-yl)-1-pyrrolidinyl)carbonyl)-2-methylpropyl)carbamate, bistrifluoracetate], the half-maximal effective concentration (EC50) stood at 350 nM.
